The supplement of paper PMC13380429

Assays:
Conditions in all cases: 72 h
U2OS [1] = assay: drug sensitivity score (DSS) for viability; higher = more toxic; extreme values may be limits of the assay
Vero E6 [2] = assay: as above
Caco-2 [3] = assay: as above
HepG2 [4] = assay: as above
Calu-3 [5] = assay: as above
U2OS [6] = assay: relative viability EC50 (midpoint between 100% and the lowest measured viability); higher = less toxic
Vero E6 [7] = assay: as above
Caco-2 [8] = assay: as above
HepG2 [9] = assay: as above
Calu-3 [10] = assay: as above
U2OS [11] = assay: cell viability relative to DMSO; higher = less toxic
Vero E6 [12] = assay: as above
Caco-2 [13] = assay: as above
HepG2 [14] = assay: as above
Calu-3 [15] = assay: as above

| Compound | drug sensitivity score (U2OS [1]) | drug sensitivity score (Vero E6 [2]) | drug sensitivity score (Caco-2 [3]) | drug sensitivity score (HepG2 [4]) | drug sensitivity score (Calu-3 [5]) | relative viability EC50 (U2OS [6]) [µM] | relative viability EC50 (Vero E6 [7]) [µM] | relative viability EC50 (Caco-2 [8]) [µM] | relative viability EC50 (HepG2 [9]) [µM] | relative viability EC50 (Calu-3 [10]) [µM] | cell viability (U2OS [11]; 1 nM) [%] | cell viability (U2OS [11]; 10 nM) [%] | cell viability (U2OS [11]; 100 nM) [%] | cell viability (U2OS [11]; 1000 nM) [%] | cell viability (U2OS [11]; 10000 nM) [%] | cell viability (Vero E6 [12]; 1 nM) [%] | cell viability (Vero E6 [12]; 10 nM) [%] | cell viability (Vero E6 [12]; 100 nM) [%] | cell viability (Vero E6 [12]; 1000 nM) [%] | cell viability (Vero E6 [12]; 10000 nM) [%] | cell viability (Caco-2 [13]; 1 nM) [%] | cell viability (Caco-2 [13]; 10 nM) [%] | cell viability (Caco-2 [13]; 100 nM) [%] | cell viability (Caco-2 [13]; 1000 nM) [%] | cell viability (Caco-2 [13]; 10000 nM) [%] | cell viability (HepG2 [14]; 1 nM) [%] | cell viability (HepG2 [14]; 10 nM) [%] | cell viability (HepG2 [14]; 100 nM) [%] | cell viability (HepG2 [14]; 1000 nM) [%] | cell viability (HepG2 [14]; 10000 nM) [%] | cell viability (Calu-3 [15]; 1 nM) [%] | cell viability (Calu-3 [15]; 10 nM) [%] | cell viability (Calu-3 [15]; 100 nM) [%] | cell viability (Calu-3 [15]; 1000 nM) [%] | cell viability (Calu-3 [15]; 10000 nM) [%] |
| --- | --- | --- | --- | --- | --- | --- | --- | --- | --- | --- | --- | --- | --- | --- | --- | --- | --- | --- | --- | --- | --- | --- | --- | --- | --- | --- | --- | --- | --- | --- | --- | --- | --- | --- | --- |
| N[C@H](C(=O)O)c1ccc(O)cc1 [oxfenicine] | 0 | 0 | 0 | 0 | 0 | > 10 | > 10 | > 10 | > 10 | > 10 | 99.7 | 103 | 98.6 | 102 | 95.7 | 99.7 | 96.3 | 101 | 91.3 | 99.1 | 94.2 | 90.6 | 88.6 | 88.6 | 96.3 | 84.1 | 96.3 | 96.9 | 103 | 100 | 103 | 95.1 | 99.2 | 103 | 103 |
| COc1ccc(Oc2c(Cl)cnn(C3c4ccccc4-c4ccccc43)c2=O)cc1 | 0 | 0 | 0 | 0 | 0 | > 10 | > 10 | > 10 | > 10 | > 10 | 102 | 95.1 | 94.3 | 97.9 | 95.5 | 92.6 | 107 | 94.7 | 96.4 | 99.6 | 98.7 | 95 | 97 | 101 | 88.7 | 103 | 99.8 | 93.5 | 108 | 100 | 110 | 99.9 | 96.4 | 101 | 101 |
| Nc1ccn(C[C@@H](CO)OCP(=O)(O)O)c(=O)n1 [cidofovir] | 0 | 0 | 0 | 0 | 0 | > 10 | > 10 | > 10 | > 10 | > 10 | 99.4 | 95.7 | 97.5 | 95.3 | 98.7 | 93.7 | 94.3 | 88.4 | 87.4 | 99.6 | 103 | 92.7 | 106 | 96.8 | 101 | 97 | 98.3 | 104 | 111 | 120 | 93.7 | 104 | 112 | 101 | 107 |
| Nc1nc(/C(=C/CC(=O)O)C(=O)N[C@@H]2C(=O)N3C(C(=O)O)=CCS[C@H]23)cs1 [ceftibuten] | 0 | 0 | 0 | 0 | 0 | > 10 | > 10 | > 10 | > 10 | > 10 | 101 | 95 | 100 | 97.8 | 106 | 99.5 | 104 | 96.1 | 104 | 97.8 | 102 | 102 | 106 | 94.9 | 104 | 86.3 | 105 | 99.3 | 95.3 | 91 | 103 | 99.9 | 102 | 94.6 | 106 |
| N#Cc1cn([C@@H]2O[C@H](CO)[C@@H](O)[C@H]2O)c2ncnc(N)c12 [toyocamycin] | 34.2 | 32.6 | 29.7 | 35.6 | 27.7 | 0.0125 | 0.0194 | 0.0025 | 0.0098 | 0.0244 | 94.5 | 56.7 | 9.5 | 2.5 | 1 | 88.1 | 84.4 | 2.2 | 2.8 | 1.8 | 94.4 | 35 | 42.8 | 34.9 | 38.6 | 89.1 | 50.3 | 8.3 | -0.4 | 0.1 | 93 | 73.8 | 27.8 | 14.5 | 9.8 |
| NCCc1cc[nH]n1 [betazole] | 0 | 0 | 0 | 0 | 0 | > 10 | > 10 | > 10 | > 10 | > 10 | 102 | 99.5 | 105 | 102 | 108 | 94.4 | 104 | 92.8 | 106 | 106 | 89 | 91.4 | 84.3 | 92.6 | 107 | 100 | 106 | 92.9 | 98 | 125 | 97.2 | 102 | 97.2 | 101 | 109 |
| O=C(Nc1cc(C(F)(F)F)ccc1O)Nc1cc(C(F)(F)F)ccc1O [NS-1643] | 0 | 0 | 0.2 | 0 | 0 | > 10 | > 10 | > 10 | > 10 | > 10 | 99.3 | 100 | 104 | 102 | 96.9 | 98.8 | 103 | 100 | 99.1 | 95.1 | 108 | 101 | 102 | 95 | 88.3 | 95.3 | 105 | 110 | 94.7 | 92.5 | 102 | 94.7 | 103 | 97.4 | 104 |
| CO[C@@]1(NC(=O)Cc2cccs2)C(=O)N2C(C(=O)O)=C(COC(N)=O)CS[C@@H]21 [cefoxitin] | 0 | 0.5 | 0 | 0 | 0 | > 10 | > 10 | > 10 | > 10 | > 10 | 95.6 | 99 | 96.3 | 102 | 105 | 104 | 95.7 | 100 | 96.8 | 85.5 | 90.1 | 95.5 | 102 | 101 | 97.8 | 113 | 91.4 | 98.1 | 97.4 | 97.4 | 106 | 94.4 | 106 | 104 | 110 |
| N#CCC(=O)NN [cyacetacide] | 0 | 0 | 0 | 0 | 0 | > 10 | > 10 | > 10 | > 10 | > 10 | 95.5 | 103 | 96 | 94 | 102 | 106 | 98.6 | 102 | 108 | 102 | 98.2 | 102 | 100 | 95.6 | 97.8 | 95.7 | 91.9 | 97 | 97.4 | 93.4 | 84 | 103 | 96.3 | 95.7 | 108 |
| CCCCCCCCCCCC[N+](C)(C)CCOc1ccccc1 [domiphen] | 5.6 | 0.5 | 4.9 | 4.8 | 3.9 | 2.8 | > 10 | 3.22 | 2.46 | 3.31 | 93.6 | 102 | 94.9 | 95.7 | 9.5 | 100 | 98.8 | 96.6 | 93 | 83.8 | 85.6 | 99.3 | 95 | 101 | 11.1 | 103 | 95.3 | 100 | 94 | 30 | 90.9 | 92.7 | 91.5 | 102 | 26.8 |
| Oc1cccc2cccnc12 [oxyquinoline] | 0 | 0 | 3.1 | 0.3 | 0 | > 10 | > 10 | > 10 | > 10 | > 10 | 101 | 97.5 | 103 | 97.5 | 100 | 96 | 100 | 94.2 | 103 | 90.8 | 109 | 96.4 | 84.7 | 93.2 | 88.7 | 119 | 79.7 | 110 | 102 | 80.9 | 101 | 114 | 95.5 | 104 | 98.8 |
| CC1(C)CCC(C)(C)c2c1cc(C(=O)Nc1cc(F)c(C(=O)O)c(F)c1)c(O)c2Cl | 0 | 0 | 0.8 | 0 | 1.9 | > 10 | > 10 | > 10 | > 10 | > 10 | 100 | 96.9 | 90.7 | 97.2 | 92.7 | 95.4 | 105 | 105 | 94.2 | 95.5 | 105 | 94.3 | 96 | 86.9 | 85.7 | 102 | 105 | 115 | 112 | 92.7 | 105 | 92.8 | 89.9 | 86.5 | 85.7 |
| CC(C)(O)c1ccn2c(-c3ccc(F)c(-c4ccc(F)cc4C#N)c3)cnc2c1F [TP-003] | 0 | 0 | 0 | 0 | 0 | > 10 | > 10 | > 10 | > 10 | > 10 | 96.7 | 94.1 | 104 | 96.5 | 99.4 | 97.6 | 99.1 | 92.3 | 103 | 103 | 98.7 | 96 | 93.6 | 103 | 95.6 | 98.3 | 96.4 | 97.9 | 103 | 102 | 106 | 91.9 | 102 | 114 | 92.7 |
| CCC(=O)[C@@]1(C)[C@H](C)C[C@H]2[C@@H]3CCC4=CC(=O)C=C[C@]4(C)[C@H]3[C@@H](O)C[C@@]21C [rimexolone] | 0 | 0 | 0 | 0 | 0 | > 10 | > 10 | > 10 | > 10 | > 10 | 99.8 | 98.9 | 100 | 95.5 | 97 | 93.8 | 95.2 | 90 | 94.7 | 100 | 85.5 | 90.5 | 101 | 88.8 | 107 | 86.3 | 102 | 95.4 | 112 | 92.8 | 98.4 | 99 | 89.4 | 102 | 96.4 |
